According to US20030229451A1, “Methods and systems for analyzing complex biological systems” (priority 2001, published 2003):

What was measured:
Arabidopsis thaliana [1] = assay: MOA1 gene expression profiling (22,000 gene array); conditions: for Regulated Genes: Down / Regulated Genes: Up: 1 hr, p < 0.5; for No. of Lethal Genes Altered: genes essential for plant growth and development
Arabidopsis thaliana [2] = assay: MOA1 biochemical (metabolite) profiling by LC-MS and GC-MS
[3] = tested on: Arabidopsis thaliana plants; assay: SOA1 phenotypic analysis of herbicide-treated Arabidopsis (MIC, Tmic, leaf traits); format: in vivo; conditions: for characteristic morphological symptoms: herbicide-treated Arabidopsis; for leafCurling Dev. / leafTwisting Dev. / leafWidth Dev. / matureLeafAnthocyanins Dev. / matureLeafChlorosis Dev. / matureLeafNecrosis Dev. / newLeafAnthocyanins Dev. / newLeafChlorosis Dev. / newLeafNecrosis Dev. / pointedLeaves Dev.: numeric value standardized to mock treated; for tMic Dev.: time to full range of symptoms at MIC, coded
Magnaporthe grisea = format: cell-based
[4] = tested on: Saccharomyces cerevisiae wild type strain BY4743; assay: AF1 metabolite analysis (GC-MS, LC-MS) of yeast cells treated with antifungal drugs; format: cell-based; conditions: P < 0.1; 2x MIC, two hours
[5] = tested on: Saccharomyces cerevisiae wild type strain BY4743; assay: AF1 combined gene expression and metabolite mapping to reactions and pathways (KEGG); format: cell-based
Description: The pathway score indicates how meaningful the mapping is, or how likely it is to be correctly indicative of the pathway involved in the perturbation under examination. The method provides a pathway score based on perturbation levels of genes and/or compounds and the information content of each gene and/or compound in the pathway, i.e., a pathway score indicates the extent to which other pathways are mapped to a gene/compound. For example, imagine that two genes are perturbed in a particular experiment. One gene maps to only one pathway, giving a high degree of probability that the perturbed pathway is the one identified in the mapping. The second gene maps to three pathways. In the later example, there is only one-third the probability that the pathway identified in the mapping is the one perturbed. The present invention provides a method for calculating the pathway scores, so that more weight is given to a score of a gene or compound that maps to only one pathway than to a score of a gene or compound that maps to multiple pathways. […] Where n=the total number of genes in the pathway; ipath—count=the number of pathways containing a gene; and j=the number of genes in the pathway that are perturbed. Another factor to be considered when weighting a pathway score is the degree of perturbation. Degree of perturbation can be calculated, for example, based on a number of standard deviations from a norm, and included in an equation such as the one shown above, so that not only the number of pathways is taken into account, but also accounts for the amount of gene transcript or compound present as compared to a control. The data were then combined to determine the number of reactions showing an enzyme and at least one compound perturbed, and to determine the number of pathways having at least one enzyme and one perturbed compound perturbed. The results of the analysis are represented in Tables 16 and 17, and were difficult to interpret, illustrating that the ability to draw conclusions from compound mapping to pathways is limited when absent additional data.

[6] = tested on: N-starved Arabidopsis plants; conditions: nitrate addition to N-starved plants; cited from earlier work
[7] = concentrations insufficient to inhibit growth

| Compound | Regulated Genes: Down (Arabidopsis thaliana [1]) | Regulated Genes: Up (Arabidopsis thaliana [1]) | No. of Lethal Genes Altered (Arabidopsis thaliana [1]) | Number of Metabolites Changed: (unknown #) (Arabidopsis thaliana [2]; 20 min, p < 0.05) | Number of Metabolites Changed: Total # (Arabidopsis thaliana [2]; 20 min, p < 0.05) | Number of Metabolites Changed: (unknown #) (Arabidopsis thaliana [2]; 20 min, p < 0.11) | Number of Metabolites Changed: Total # (Arabidopsis thaliana [2]; 20 min, p < 0.11) | Number of Metabolites Changed: (unknown #) (Arabidopsis thaliana [2]; 1 hr, p < 0.05) | Number of Metabolites Changed: Total # (Arabidopsis thaliana [2]; 1 hr, p < 0.05) | Number of Metabolites Changed: (unknown #) (Arabidopsis thaliana [2]; 1 hr, p < 0.11) | Number of Metabolites Changed: Total # (Arabidopsis thaliana [2]; 1 hr, p < 0.11) | leafCurling Dev. [3] | leafTwisting Dev. [3] | leafWidth Dev. [3] | matureLeafAnthocyanins Dev. [3] | matureLeafChlorosis Dev. [3] | matureLeafNecrosis Dev. [3] | newLeafAnthocyanins Dev. [3] | newLeafChlorosis Dev. [3] | newLeafNecrosis Dev. [3] | further results |
| --- | --- | --- | --- | --- | --- | --- | --- | --- | --- | --- | --- | --- | --- | --- | --- | --- | --- | --- | --- | --- | --- |
| COC(=O)NS(=O)(=O)c1ccc(N)cc1 [Asulam] | 7 | 80 | 5 | 3 | 9 | 5 | 14 | 7 | 10 | 11 | 18 | – | – | – | – | – | – | – | – | – | – |
| COc1nc(C)nc(NC(=O)NS(=O)(=O)c2ccccc2Cl)n1 [Chlorsulfuron] | 109 | 97 | 8 | 4 | 9 | 6 | 15 | 3 | 5 | 13 | 23 | 1 | 1 | −1 | 3 | 2 | 0 | 0 | 2 | 0 | characteristic morphological symptoms [3]: anthocyanin accumulation in the older leaves accompanied by chlorosis of the newly emerging leaves; pointedLeaves Dev. [3]: 0; tMic Dev. [3]: 2 |
| CP(=O)(O)CCC(N)C(=O)O (stereo not drawn) [Glufosinate] | 54 | 296 | 10 | 25 | 33 | 33 | 48 | 4 (4) | 4 (4) | 9 (9) | 9 (9) | 2 | 1 | −2 | 0 | 3 | 0 | 0 | 3 | 0 | characteristic morphological symptoms [3]: Chlorosis and leaf curling; pointedLeaves Dev. [3]: 1; tMic Dev. [3]: 1; nitrogen source utilization by M. grisea (Magnaporthe grisea; in the presence of compound): only able to utilize glutamine and glutamate as nitrogen sources |
| O=C(O)CNCP(=O)(O)O [Glyphosate] | – | – | – | 2 | 4 | 9 | 13 | 9 | 16 | 24 | 46 | 0 | 0 | 0 | 3 | 1 | 3 | 1 | 2 | 0 | characteristic morphological symptoms [3]: anthocyanin accumulation in the older leaves accompanied by chlorosis of the newly emerging leaves; pointedLeaves Dev. [3]: 1; tMic Dev. [3]: 2; growth results for Tiers 3 and 4 compared to Unknown 4 (Magnaporthe grisea; 250 μg/ml): nearly identical; growth inhibition of M. grisea (Magnaporthe grisea; 1.0 mg/ml): remediated by inclusion of aromatic amino acids; tyrosine level (Arabidopsis thaliana [2]; relative to the control): decreased |
| CS(=O)(=O)c1cc(C(F)(F)F)ccc1C(=O)c1cnoc1C1CC1 [Isoxaflutole] | 370 | 143 | 15 | 29 | 45 | 39 | 62 | 13 | 14 | 21 | 25 | – | – | – | – | – | – | – | – | – | growth of M. grisea in minimal media (Magnaporthe grisea; [7]): unaffected; growth of M. grisea in minimal plus tyrosine media (Magnaporthe grisea; [7]): inhibited; phenylalanine level (Arabidopsis thaliana [2]; relative to the control): up-regulated; tyrosine level (Arabidopsis thaliana [2]; relative to the control): up-regulated; Alpha-tocopherol level (Arabidopsis thaliana [2]; relative to the control, early time points): not significantly changed |
| CC(=O)N1CCN(c2ccc(OCC3COC(Cn4ccnc4)(c4ccc(Cl)cc4Cl)O3)cc2)CC1 (stereo not drawn) [Ketoconazole] | – | – | – | – | – | – | – | – | – | – | – | – | – | – | – | – | – | – | – | – | # Compounds perturbed [4]: 15; # Reactions Having an Enzyme and at Least One Compound Perturbed [5]: 21; Number Of Pathways Having at Least One Enzyme and One Compound Perturbed (# Reactions) [5]: 24 |
| CCc1cccc(C)c1N(C(=O)CCl)C(C)COC (stereo not drawn) [Metolachlor] | – | – | – | 25 | 38 | 34 | 54 | 11 | 18 | 22 | 45 | 2 | 1 | −1 | 0 | 0 | 3 | 0 | 0 | 3 | pointedLeaves Dev. [3]: 1; tMic Dev. [3]: 2 |
| O=C(O)c1ccccc1C(=O)Nc1cccc2ccccc12 [Naptalam] | 47 | 50 | 3 | 11 | 28 | 16 | 39 | 9 | 13 | 23 | 46 | – | – | – | – | – | – | – | – | – | – |
| O=[N+]([O-])O [Nitrate] | – | – | – | – | – | – | – | – | – | – | – | – | – | – | – | – | – | – | – | – | Nitrate Regulation of Glutamate synthetase [6]: ↑; Nitrate Regulation of Glutamine synthetase (2) [6]: ↑; Nitrate Regulation of MADs Box (2) [6]: ↓; Nitrate Regulation of MYB transcription factor [6]: ↑; Nitrate Regulation of Malate Dehydrogenase [6]: ↑; Nitrate Regulation of Nitrate transporter [6]: ↑; Nitrate Regulation of Phosphate transporter [6]: ↑; Nitrate Regulation of Transaldolase [6]: ↑; Nitrate Regulation of Transketolase [6]: ↑ |
| C[n+]1ccc(-c2cc[n+](C)cc2)cc1 [Paraquat] | – | – | – | 5 | 9 | 9 | 14 | 15 | 22 | 31 | 50 | 2 | 0 | −1 | 0 | 1 | 4 | 0 | 1 | 4 | characteristic morphological symptoms [3]: rapid and widespread leaf necrosis; pointedLeaves Dev. [3]: 1; tMic Dev. [3]: 2 |
